Measurements from the SangsterLogP compilation.

Assay: method code SF-AS, from DOI: 10.1007/bf00778146

Which logP does the source give for `OCC(CO)(CO)Nc1nc(N2CC2)nc(N2CC2)n1` here?
Its logP is -1.76.

With `OCC1(Nc2nc(N3CC3)nc(N3CC3)n2)COC(c2ccccc2)OC1` (stereo unspecified) as the compound, how does the logP read?
The logP was 0.62.

With `OCC1(Nc2nc(N3CC3)nc(N3CC3)n2)COC(c2ccco2)OC1` (stereo unspecified) as the compound, how does the logP read?
Its logP is 0.27.

With `CC1(C)OCC(Nc2nc(N3CC3)nc(N3CC3)n2)CO1` as the compound, how does the logP read?
Its logP is 0.11.

For `CC(C)C1OCC(CO)(Nc2nc(N3CC3)nc(N3CC3)n2)CO1` (stereo unspecified), which logP is on record?
The logP was 0.22.

With `OCC(CO)Nc1nc(N2CC2)nc(N2CC2)n1` as the compound, how does the logP read?
The logP was -1.54.

For `CCC(CO)(CO)Nc1nc(N2CC2)nc(N2CC2)n1`, which logP is on record?
The logP was -0.32.

For `CC1(C)OCC(CO)(Nc2nc(N3CC3)nc(N3CC3)n2)CO1`, which logP is on record?
Its logP is -0.52.

Which logP does the source give for `CC(CO)(CO)Nc1nc(N2CC2)nc(N2CC2)n1` here?
The logP was -0.75.

With `CCC1(Nc2nc(N3CC3)nc(N3CC3)n2)COC(C)(C)OC1` as the compound, how does the logP read?
The logP was 0.85.

With `COc1ccc(C2OCC(CO)(Nc3nc(N4CC4)nc(N4CC4)n3)CO2)cc1OC` (stereo unspecified) as the compound, how does the logP read?
The logP was 0.89.
